Results published in patent US11261179B2, “Small molecules” (University of Dundee, priority 2017, dated 2022).
Entries after “also recorded” stand apart in the source; their conditions may differ.

Tests used:
pVHL30 (VCB complex) = pVHL30 (VCB complex) (Homo sapiens, UniProt P40337); assay: ITC titration against VCB, long VHL isoform; assay type: binding
Procedure: Titrations were performed on an ITC200 micro-calorimeter (GE Healthcare). […] The final DMSO concentration was 0.15% v/v. VBC protein experiments were carried out in a buffer containing 20 mM Bis-tris propane, 150 mM NaCl, 1 mM TCEP, 0.15% v/v DMSO, pH 7.4. The titrations consisted of 19 injections of 2 μL compounds solution (150 μM, in the syringe) at a rate of 2 s/μL at 120 s time intervals into the VCB protein solution (20 μM, in the cell). An initial injection of compound solution (0.4 μL) was made and discarded during data analysis. All experiments were performed at 25° C., whilst stirring the syringe at 600 rpm. The data were fitted to a single binding site model to obtain the stoichiometry n, the dissociation constant Kd and the enthalpy of binding ΔH using the Microcal LLC ITC200 Origin software provided by the manufacturer.

[1] = biological target: T1, pVHL30 (long isoform of VHL) (Homo sapiens, UniProt P40337); assay: Western blot of VHL levels in HeLa cells; assay type: cell-based
T1 construct: endogenous in cells; host or cells: HeLa
Procedure: (§1) For single time point treatment experiments, cells were transferred in 6-well plates with 5×10^5 cells per well in 2 ml media in order to achieve 80% confluence the following day. Stock concentrations of compounds were prepared by solubilizing the powder in 100% v/v DMSO to the final desired stock concentration.
(§2) On the day of treatment, all compound samples were prepared as 100-fold concentrated compound solution using DMEM just before treatment. The experiment samples (20 μL) were added to the 6 well plate containing 2 ml of media. The final DMSO concentration was 0.1% v/v. Cells were incubated at 37° C. and 5% CO2 for the desired time before harvesting.
(§3) For time dependent treatment, cells were transferred in 6-well plates with 3×10^5 cells per well in 2 ml media. Samples were prepared as detailed above or the single time point experiments. Treatment was conducted at given time points prior to harvest.
Cells were transferred in 6-well plates with 5×10^5 cells per well in 2 ml media in order to achieve 80% confluence the day after. At t=0, MLN4924 was added into the desired wells at 3 μM final concentration and 0.1% v/v of DMSO. DMSO (0.1% v/v final conc.) was added to the remaining wells in order to match identical conc. of vehicle in all wells. At t=3 h, MG 132 was added into the desired wells at 50 μM final conc. and 0.1% v/v of DMSO. DMSO (0.1% v/v final conc.) was added to the remaining wells in order to achieve the same conc. of vehicle in all the wells. […] DMSO (0.1% v/v final conc.) was added to the remaining wells in order to obtain the same conc. of vehicle in all the wells. The total final concentration of DMSO was therefore 0.3% v/v. Plates were incubated for 4 h at 37° C. and 5% CO2 before harvesting.
Cells were transferred in 6-well plates with 5×10^5 cells per well in 2 ml media in order to achieve 80% confluence the day after. […] Plates were incubated for the desired time at 37° C. and 5% CO2 before harvesting.
For this experiments, cells were transferred in 6-well plates with 5×10^5 cells per well in 2 ml media in order to achieve 80% confluence the day after. […] Plates were incubated for the desired time at 37° C. and 5% CO2 before harvesting.
(§4) Cells were lysed in lysis buffer (20 mM Tris pH 8, 150 mM NaCl, 1% Triton x100) and a protease inhibitor cocktail (Roche) per 10 ml buffer. For protein extracts, the dishes were placed on ice. The media was aspirated and the tissue layer washed twice with ice-cold phosphate buffer saline (PBS). Lysis buffer (120 μl) was added and the cells detached from the surface with a cell scraper. After removal of the insoluble fraction by centrifugation, the protein concentration of the supernatant was determined by Pierce™ Coomassie (Bradford) Protein Assay Kit. Protein extracts were fractionated by SDS-PAGE on 4-12% Tris-Acetate NuPage® Novex® (Life Technologies) polyacrylamide gels and transferred to a nitrocellulose membrane using wet transfer. The membrane was then blocked with 5% w/v Bovine serum albumin (BSA) in Tris-buffered saline (TBS) with 0.1% w/v Tween-20. For detecting proteins the following primary antibodies in the given concentrations were used: anti-β-Actin (Cell Signaling Technology, 4970S, 13E5) 1:2000, anti-VHL (Cell Signaling Technology, #68547) 1:1000, anti-Hif-1α (BD Biosciences, 610959, clone 54) 1:1000, anti-hydroxy-HIF-1α (Hyp564) (Cell Signaling Techonology; #3434) 1:1000, anti-PHD2 (Bethyl Laboratories; A300-322A) 1:1000, anti-PHD3 (Bethyl Laboratories; A300-327A) 1:1000, anti-CRBN (Proteintech; 11435-1-AP) 1:1000.
(§5) Following incubation with a horseradish peroxidase-conjugated secondary antibody (Cell Signaling Technology), the signal was developed using enhanced chemiluminescence (ECL) Western Blotting Detection Kit (Amersham) on Amersham Hyperfilm ECL film (Amersham).
Band quantification was performed using ImageJ software and reported as relative amount as ratio of the each protein band relative to the lane's loading control. […]

pVHL30 = biological target: T2, pVHL30 (Homo sapiens, UniProt P40337); assay: Western blot of VHL levels in U2OS cells; assay type: cell-based
T2 construct: endogenous in cells; host or cells: U2OS
Procedure: as §1, §2, §3, §4, §5
Band quantification was performed using ImageJ software and reported as relative amount as ratio of the each protein band relative to the lane's loading control. The values obtained were then normalized to 0.1% DMSO vehicle control.

T1 sequence (P40337 whole entry, canonical isoform): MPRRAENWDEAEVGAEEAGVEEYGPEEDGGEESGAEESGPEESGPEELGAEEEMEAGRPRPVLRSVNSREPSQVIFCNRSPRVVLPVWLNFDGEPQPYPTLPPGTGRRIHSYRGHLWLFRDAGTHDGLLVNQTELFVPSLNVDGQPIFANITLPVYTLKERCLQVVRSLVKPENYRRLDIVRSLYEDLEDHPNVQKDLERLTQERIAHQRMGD
Chain of pVHL30 (VCB complex) (P40337 whole entry, canonical isoform): as above
Chain of pVHL30 (VCB complex) (Q15370 1-104 partner limits assumed): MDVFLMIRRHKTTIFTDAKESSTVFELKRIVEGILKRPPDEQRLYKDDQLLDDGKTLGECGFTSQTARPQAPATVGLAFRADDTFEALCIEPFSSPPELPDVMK
Chain of pVHL30 (VCB complex) (Q15369 17-112 partner limits assumed): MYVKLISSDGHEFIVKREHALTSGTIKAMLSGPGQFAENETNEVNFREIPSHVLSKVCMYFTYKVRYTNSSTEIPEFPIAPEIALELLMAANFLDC
T2 sequence (P40337 whole entry): as the sequence (P40337 whole entry, canonical isoform) above

Structure (SMILES): Cc1ncsc1-c1ccc(CNC(=O)[C@@H]2C[C@@H](O)CN2C(=O)[C@@H](NC(=O)COCCOCCOCCOCCOCCOCC(=O)N[C@H](C(=O)N2C[C@H](O)C[C@H]2C(=O)NCc2ccc(-c3scnc3C)cc2)C(C)(C)C)C(C)(C)C)cc1 [CM11, N^1,N^20-bis((S)-1-((2S,4R)-4-hydroxy-2-((4-(4-methylthiazol-5-yl)benzyl)carbamoyl)pyrrolidin-1-yl)-3,3-dimethyl-1-oxobutan-2-yl)-3,6,9,12,15,18-hexaoxaicosanediamide]
- Kd (pVHL30 (VCB complex)): 0.025 ± 0.003 µM
- n (stoichiometry) (pVHL30 (VCB complex)): 0.866 ± 0.003
- ΔG (pVHL30 (VCB complex)): -10.4 ± 0.1 kcal/mol
- ΔH (pVHL30 (VCB complex)): -11.3 ± 0.1 kcal/mol
- α (cooperativity/avidity) (pVHL30 (VCB complex)): 4
- −TΔS (pVHL30 (VCB complex)): -0.9 ± 0.1 kcal/mol
- effective degrading concentrations lower than inhibitory concentrations of VH032 [1]: > 3 orders of magnitude
- increase in cellular activity compared to parent inhibitor VH032 [1]: > 1000 fold
- depletion/degradation of VHL (pVHL30) ([1]; 1 μM, 10 h): total knockdown; also recorded: complete depletion
- DC99, complete depletion of pVHL30 ([1]; 4 h): 10 nM
- DC50 ([1]; 24 h, read-out: half-degrading concentration (DC50) of pVHL30): ~0.1 µM
- cellular activity with IOX4 pre-treatment ([1]; IOX4 50 μM 30 min before CM11 1 μM, 4 h): did not impact the cellular activity
- degradation of pVHL30 with MG132 pre-treatment ([1]; MG132 50 μM 30 min before CM11 1 μM, 4 h): completely abrogated
- degradation of pVHL30 with MLN4924 pre-treatment ([1]; MLN4924 3 μM before CM11 1 μM, 4 h): prevented
- pVHL degradation with VH032 pre-treatment (competition) ([1]; VH032 150 μM 30 min before CM11 1 μM, 4 h): blocked pVHL degradation
- decrease of pVHL30 level ([1]; time course, after 8 h): essentially to completion
- profile of cellular activity (pVHL30; 10 h, 1 nM-100 μM): consistent profile of cellular activity
- cellular efficacy at longer time points (pVHL30; time course): retained their efficacy
- time of treatment to complete degradation of pVHL30 (pVHL30; time course): 1 h
